Measurements reported in patent US10983109B2, “Compositions and methods for treating B-lymphoid malignancies” (The Children's Hospital of Philadelphia, priority 2013, dated 2021).

Legend:
Type in all cases: cell-based, mouse
[1] = system: protein synthesis; experiment: Cycloheximide experiment in Pax5- and CD19-reconstituted Myc5 cells; details: 1 μg/ml, over 30 minutes
From the text: All figures except FIGS. 3E and 3H represent immunoblotting analyses of proteins indicated on the left. Actin was used as a loading control. In bracketed panels of FIG. 3A, whole cell lysates from Myc5 cells expressing HA-tagged wild-type or mutant (“mut”) ITAM were subjected to immune-precipitation with an α-HA antibody followed by immunoblotting with antibody against total Lyn, Tyr396-phospho-Lyn, or another α-HA antibody. In the bottom panels, lysates from the same cells were immunoblotted with antibodies against c-Myc, and β-actin. […] Mean fluorescent intensities (MFI) are shown in each plot. […] CHX was added at the concentration of 1 μg/ml for 7.5-30 minutes. In the bottom panels Myc-specific bands were quantitated by densitometry, normalized to actin, and plotted against time after treatment. Note that different exposures are shown for parental and Pax5/CD19-transduced cells to allow accurate band quantitation. […]
Myc5 stably transduced with either Pax5 or CD19 retroviral construct were seeded at 1×10^6/ml in 50 ml conical tubes received cycloheximide (Sigma) treatment at 1 μg/ml, while stimulation with 95% ethanol (sigma) served as control. […] Protein samples were resolved on 10% SDS-PAGE for Western blot analysis. c-Myc protein levels were quantified by densitometry using ImageJ 1.43 (National Institutes of Health) with quantitated values normalized to β-actin.

[2] = system: Src family tyrosine kinases (SFTKs); experiment: Western blotting with phospho-specific antibodies of MYC5 cells expressing WT or MUT CD19 treated with SU6656
Method: (§1) FIG. 11A provides growth rates of MYC5 tumors expressing either wild type or mutant CD19. FIG. 11B provides immunoblotts of protein lysates obtained from individual tumors in FIG. 11A on day 23. […] Phosphorylation was assessed using Western blotting with phospho-specific antibodies. […] GFP-only-expressing MYC5 cells were used as a control. Cell proliferation was measured using the WST assay at indicated time points.

[3] = system: MYC5/CD19 cells; experiment: WST cell proliferation assay of MYC5/CD19 cells; details: CD19mut/PI3K-disabled cells; GFP-only MYC5 cells as control
Method: as §1
Proliferation of Myc5-M5 CD19 transduced cells in vitro were determined using cell proliferation reagent WST-1 (Roche Molecular Biochemicals). Cells were seeded at 1×10^3/well in 100 μl of culture medium were incubated for a total of 72 hours. Proliferation status was determined every 24 hours by incubating with 10 μl of the cell proliferation reagent WST-1 for 4 hours. The absorbance of the treated samples in triplicates were measured against a blank control was measured at 440 nM using a Synergy™ 2 microplate reader (BioTek Instruments).

## C[C@@H]1C[C@@H]([C@H](O)CC2CC(=O)NC(=O)C2)C(=O)[C@@H](C)C1 [CHX, cycloheximide]
[1]
  Myc levels: clearly down-regulated
  retrovirally transduced Pax5 or CD19 protein expression: no observable effects

## CN(C)S(=O)(=O)c1ccc2c(c1)/C(=C/c1cc3c([nH]1)CCCC3)C(=O)N2 [SU6656]
[2]
  phospho-JNK levels: reduced
[3]
  cell proliferation (WST assay): selectively suppressed proliferation
